Measurements published in US10428081B2, “EGFR inhibitor, preparation method and use thereof” (Shanghai Hansoh Biomedical Co., Ltd., priority 2014, dated 2019).

Legend:
[1] = target: wild-type EGFR enzyme (Homo sapiens, UniProt P00533); assay: Enzymologic experiment of wild-type (WT) EGFR (TR-FRET); type: biochemical; settings: ATP 0.1 to 5 uM
Experimental: 2. Enzymologic Experiment of Wild-Type (WT) EGFR
In this experiment, the inhibitory effect of compounds on wild-type EGFR enzyme was tested by a fluorescence resonance energy transfer (TR-FRET) method, and the half maximal inhibitory concentration IC50 of the compounds on enzymatic activity was determined.
1) 1 to 5 μL of wild-type EGFR enzyme solution was added to a 384-well plate, and the final concentration of the enzyme was 0.1 to 1 nM.
(§1) 2) 1 to 5 μL of diluted solution in gradient of the compound was added.
(§2) 3) The mixture was incubated for 10 minutes at room temperature.
(§3) 6) 5 μL of EDTA stop solution was added to terminate the reaction for 5 minutes.
7) 5 μL of a test solution containing the labeled antibody was added, and the mixture was incubated at room temperature for 1 hour.
9) The inhibition rates were calculated from the fluorescence signal values.
(§4) 10) The IC50 of the compound was obtained by curve fitting according to the inhibition rates at different concentrations.

[2] = system: A431 cells; assay: Inhibition of A431 cell proliferation (CellTiter-Glo); type: cell-based; settings: Homo sapiens, A-431, 72 h, read-out: EGFR IC50 (nM) A431
Experimental: 4. Experiment on the Inhibition of A431 Cell Proliferation
In this experiment, the inhibitory effect of the compounds on A431 cell proliferation was tested by a CellTiter-Glo method, and the half maximal inhibitory concentration (IC50) of the compounds on the activity of cell proliferation was determined.
The culture plate was incubated in the incubator for 16 to 24 hours (37° C., 5% CO2).
(§5) 2) Different concentrations of the test compound in a gradient dilution were added to the cells in the culture plate. The culture plate was incubated in an incubator for 72 hours (37° C., 5% CO2).
3) 50 to 100 μL of CellTiter-Glo reagent was added to each well. Then the culture plate was shaken for 10 minutes, and left to stand at room temperature for 10 minutes.
(§6) 4) The chemiluminescence signal values of each plate were determined by a microplate reader.
5) The inhibition rates were calculated according to the chemiluminescence signal values. 6) The IC50 of the compound was obtained by curve fitting according to the inhibition rates at different concentrations.

[3] = target: exon 20 T790M mutant-type EGFR enzyme (Homo sapiens, UniProt P00533, T790M); assay: Enzymologic experiment of T790M mutant-type EGFR (TR-FRET); type: biochemical; settings: for IC50: T790M EGFR enzyme, TR-FRET, ATP 1 to 10 uM; for Selectivity of wild-type/mutant-type: ratio WT IC50 / T790M IC50, enzyme
exon 20 T790M mutant-type EGFR enzyme, sequence (P00533 25-1210 T790M): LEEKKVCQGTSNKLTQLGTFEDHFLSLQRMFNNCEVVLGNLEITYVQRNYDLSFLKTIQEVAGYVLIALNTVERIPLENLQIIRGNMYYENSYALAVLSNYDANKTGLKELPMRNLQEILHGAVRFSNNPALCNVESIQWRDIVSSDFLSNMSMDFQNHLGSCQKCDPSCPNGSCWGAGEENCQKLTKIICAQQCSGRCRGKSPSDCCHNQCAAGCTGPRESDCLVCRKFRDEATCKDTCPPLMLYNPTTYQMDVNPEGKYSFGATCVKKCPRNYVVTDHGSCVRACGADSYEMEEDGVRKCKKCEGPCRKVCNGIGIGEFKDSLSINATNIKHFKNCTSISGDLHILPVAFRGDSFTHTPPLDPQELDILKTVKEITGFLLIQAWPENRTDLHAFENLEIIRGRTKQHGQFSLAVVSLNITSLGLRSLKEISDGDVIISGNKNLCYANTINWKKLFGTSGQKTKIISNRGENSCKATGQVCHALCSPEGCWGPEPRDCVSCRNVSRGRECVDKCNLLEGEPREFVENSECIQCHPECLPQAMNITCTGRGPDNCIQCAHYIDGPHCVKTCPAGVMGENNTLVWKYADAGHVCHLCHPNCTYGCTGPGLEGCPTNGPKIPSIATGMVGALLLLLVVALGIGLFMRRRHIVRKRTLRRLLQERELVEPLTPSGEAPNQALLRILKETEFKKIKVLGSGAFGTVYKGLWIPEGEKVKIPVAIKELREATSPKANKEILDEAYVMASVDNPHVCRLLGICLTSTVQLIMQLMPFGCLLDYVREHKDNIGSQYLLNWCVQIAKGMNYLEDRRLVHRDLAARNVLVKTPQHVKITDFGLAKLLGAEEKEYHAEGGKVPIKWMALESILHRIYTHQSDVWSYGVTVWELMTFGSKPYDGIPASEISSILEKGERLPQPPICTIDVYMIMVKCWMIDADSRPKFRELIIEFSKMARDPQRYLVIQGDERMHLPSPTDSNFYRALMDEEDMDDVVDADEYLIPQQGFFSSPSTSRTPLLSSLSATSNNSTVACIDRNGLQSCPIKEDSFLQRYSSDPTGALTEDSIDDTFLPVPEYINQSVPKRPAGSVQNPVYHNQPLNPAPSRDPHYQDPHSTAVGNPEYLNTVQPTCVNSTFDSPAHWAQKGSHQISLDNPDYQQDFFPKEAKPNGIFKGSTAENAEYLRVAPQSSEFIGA
Experimental: as §1, §2, §3
7) […] of a test solution containing the labeled antibody was added, and the mixture was incubated at room temperature for 1 hour.
9) The inhibition rates were calculated according to the fluorescence signal values.
as §4

[4] = system: NCI-H1975 cells; assay: Inhibition of NCI-H1975 cell proliferation (CellTiter-Glo); type: cell-based; settings: for IC50: Homo sapiens, NCI-H1975, 72 h, NCI-H1975 cell proliferation, 72 hours, CellTiter-Glo, read-out: EGFR IC50 (nM) H1975; for Selectivity of wild-type/mutant-type: ratio A431 IC50 / H1975 IC50, cells
Experimental: 3. Experiment on the Inhibition of NCI-H1975 Cell Proliferation
In this experiment, the inhibitory effect of the compounds on NCI-H1975 cell proliferation was tested by a CellTiter-Glo method, and the half maximal inhibitory concentration (IC50) of the compounds on the activity of cell proliferation was determined.
The culture plate was incubated in an incubator for 16 to 24 hours (37° C., 5% CO2).
as §5
3) 50 to 100 μL of CellTiter-Glo reagent was added to each well. Then, the culture plate was shaken for 10 minutes, and left to stand at room temperature for 10 minutes.
as §6
5) The inhibition rates were calculated according to the chemiluminescence signal values.
6) The IC50 of the compound was obtained by curve fitting according to the inhibition rates at different concentrations.

wild-type EGFR enzyme, sequence (P00533 25-1210): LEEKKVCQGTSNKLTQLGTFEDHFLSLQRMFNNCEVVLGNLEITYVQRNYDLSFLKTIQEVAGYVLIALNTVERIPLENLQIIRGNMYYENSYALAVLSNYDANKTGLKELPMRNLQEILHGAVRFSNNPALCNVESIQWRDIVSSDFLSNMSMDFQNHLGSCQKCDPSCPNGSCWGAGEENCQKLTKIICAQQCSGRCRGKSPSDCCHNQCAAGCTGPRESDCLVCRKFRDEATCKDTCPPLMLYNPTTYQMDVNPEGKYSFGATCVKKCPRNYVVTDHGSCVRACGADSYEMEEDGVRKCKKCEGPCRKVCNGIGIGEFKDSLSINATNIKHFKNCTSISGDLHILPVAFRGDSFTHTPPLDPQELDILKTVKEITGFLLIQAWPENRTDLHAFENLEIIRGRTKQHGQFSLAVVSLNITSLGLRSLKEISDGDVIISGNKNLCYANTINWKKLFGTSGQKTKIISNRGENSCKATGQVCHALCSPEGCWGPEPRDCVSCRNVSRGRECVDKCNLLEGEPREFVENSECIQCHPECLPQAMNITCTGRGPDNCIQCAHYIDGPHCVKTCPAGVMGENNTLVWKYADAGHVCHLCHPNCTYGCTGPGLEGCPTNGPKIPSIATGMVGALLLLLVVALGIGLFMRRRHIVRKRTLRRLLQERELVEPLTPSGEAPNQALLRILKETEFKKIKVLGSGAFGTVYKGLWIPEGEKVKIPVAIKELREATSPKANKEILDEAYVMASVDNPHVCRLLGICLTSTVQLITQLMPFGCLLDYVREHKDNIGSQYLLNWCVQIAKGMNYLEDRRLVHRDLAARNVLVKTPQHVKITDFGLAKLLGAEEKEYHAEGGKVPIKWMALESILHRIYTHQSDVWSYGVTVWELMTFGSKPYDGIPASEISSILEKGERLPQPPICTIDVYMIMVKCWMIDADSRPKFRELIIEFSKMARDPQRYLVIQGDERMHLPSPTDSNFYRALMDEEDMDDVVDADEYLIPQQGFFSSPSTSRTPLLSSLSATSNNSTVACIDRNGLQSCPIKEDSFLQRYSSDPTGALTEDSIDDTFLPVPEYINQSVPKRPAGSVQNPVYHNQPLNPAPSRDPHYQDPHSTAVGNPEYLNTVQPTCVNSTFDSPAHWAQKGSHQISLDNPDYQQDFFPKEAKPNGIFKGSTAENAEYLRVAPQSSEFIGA

Row | IC50 [1] [nM] | IC50 [2] [nM] | IC50 [3] [nM] | Selectivity of wild-type/mutant-type [3] | IC50 [4] [nM] | SMILES | Selectivity of wild-type/mutant-type [4]
1 | 143 | 224 | 9.26 | 15 | 1.36 | C=CC(=O)Nc1cc(Nc2nccc(-c3cn(C)c4ccccc34)n2)c(OC(F)F)cc1N1CCN(C)CC1 [Example 2, N-(4-(difluoromethoxy)-5-((4-(1-methyl-1H-indol-3-yl)pyrimidin-2-yl)amino)-2-(4-methylpiperazine-1-yl)phenyl)acrylamide] | 164
2 | 6.41 | 158 | 0.39 | 16.3 | 10 | C=CC(=O)Nc1cc(Nc2nccc(-c3cn(C)c4cc(OC)ccc34)n2)c(OC(F)F)cc1N(C)CCN(C)C [Example 4, N-(4-(difluoromethoxy)-2-((2-(dimethylamino)ethyl)(methyl)amino)-5-((4-(6-methoxy-1-methyl-1H-indol-3-yl)pyrimidin-2-yl)amino)phenyl)acrylamide] | 15.78
3 | 0.8 | 212 | 0.32 | 2.5 | 5.9 | C=CC(=O)Nc1cc(Nc2ncc(Cl)c(-c3cn(C)c4ccccc34)n2)c(OC(F)F)cc1N(C)CCN(C)C [Example 5, N-(5-((5-chloro-4-(1-methyl-1H-indol-3-yl)pyrimidin-2-yl)amino)-4-(difluoromethoxy)-2-((2-(dimethylamino)ethyl)(methyl)amino)phenyl)acrylamide] | 36
4 | 15.5 | 192 |  |  | 15.8 | C=CC(=O)Nc1cc(Nc2nccc(-c3cn(C(C)=O)c4ccccc34)n2)c(OC(F)F)cc1N(C)CCN(C)C [Example 7, N-(5-((4-(1-acetyl-1H-indol-3-yl)pyrimidin-2-yl)amino)-4-(difluoromethoxy)-2-((2-(dimethylamino)ethyl)(methyl)amino)phenyl)acrylamide] | 
5 |  | 350 |  |  | 8.72 | C=CC(=O)Nc1cc(Nc2ncc(Cl)c(-c3cn(C4CC4)c4ccccc34)n2)c(OC)cc1N(C)CCN(C)C [Example 100, N-(5-((5-chloro-4-(1-cyclopropyl-1H-indol-3-yl)pyrimidin-2-yl)amino)-2-((2-(dimethylamino)ethyl)(methyl)amino)-4-methoxyphenyl)acrylamide] | 
6 | 15.4 |  | 1.51 | 10.17 | 34 | C=CCn1cc(-c2ccnc(Nc3cc(NC(=O)C=C)c(N(C)CCNC)cc3OC)n2)c2ccccc21 [Example 126, N-(5-((4-(1-allyl-1H-indol-3-yl)pyrimidin-2-yl)amino)-4-methoxy-2-(methyl(2-(methylamino)ethyl)amino)phenyl)acrylamide] | 
7 |  | 97 |  |  |  | C=CC(=O)Nc1cc(Nc2ncc(Cl)c(-c3cn(C4COC4)c4ccccc34)n2)c(OC)cc1N(C)CCN(C)C [Example 130, N-(5-((5-chloro-4-(1-(oxetan-3-yl)-1H-indol-3-yl)pyrimidin-2-yl)amino)-2-((2-(dimethylamino)ethyl)(methyl)amino)-4-methoxyphenyl)acrylamide] | 

Further lines, the compound ahead of its results:

Row | SMILES | IC50 [1] [nM] | IC50 [2] [nM] | IC50 [3] [nM] | Selectivity of wild-type/mutant-type [3] | IC50 [4] [nM] | Selectivity of wild-type/mutant-type [4]
8 | C=CC(=O)Nc1cc(Nc2nccc(-c3cn(CCO)c4ccccc34)n2)c(OC(F)F)cc1N(C)CCN(C)C [Example 6, N-(4-(difluoromethoxy)-2-((2-(dimethylamino)ethyl)(methyl)amino)-5-((4-(1-(2-hydroxyethyl)-1H-indol-3-yl)pyrimidin-2-yl)amino)phenyl)acrylamide] | 1.54 | 208 |  |  | 2.2 | 
9 | C=CC(=O)Nc1cc(Nc2nccc(-c3c[nH]c4ccccc34)n2)c(OC(F)F)cc1N(C)CCN(C)C [Example 8, N-(5-((4-(1H-indol-3-yl)pyrimidin-2-yl)amino)-4-(difluoromethoxy)-2-((2-(dimethylamino)ethyl)(methyl)amino)phenyl)acrylamide] | 3.64 | 56.2 | 0.42 | 8.8 | 5.21 | 10.8
10 | C=CC(=O)Nc1cc(Nc2nccc(-c3cn(C)c4cc(C#N)ccc34)n2)c(OC(F)F)cc1N(C)CCN(C)C [Example 9, N-(5-((4-(6-cyano-1-methyl-1H-indol-3-yl)pyrimidin-2-yl)amino)-4-(difluoromethoxy)-2-((2-(dimethylamino)ethyl)(methyl)amino)phenyl)acrylamide] | 2.12 | 216 | 0.39 | 5.44 | 4.58 | 47.07
11 | C#Cc1ccc2c(-c3ccnc(Nc4cc(NC(=O)C=C)c(N(C)CCN(C)C)cc4OC)n3)cn(C)c2c1 [Example 95, N-(2-((2-(dimethylamino)ethyl)(methyl)amino)-5-((4-(6-ethynyl-1-methyl-1H-indol-3-yl)pyrimidin-2-yl)amino)-4-methoxyphenyl)acrylamide] | 5.35 |  | 0.51 |  | 10.9 | 
12 | C=CC(=O)Nc1cc(Nc2nccc(-c3nn(C4CC4)c4ccccc34)n2)c(OC)cc1N(C)CCN(C)C [Example 119, N-(5-((4-(1-cyclopropyl-1H-indazol-3-yl)pyrimidin-2-yl)amino)-2-((2-(dimethylamino)ethyl)(methyl)amino)-4-methoxyphenyl)acrylamide] | 4.34 |  | 0.47 | 9.23 | 2.32 | 
13 | C=CC(=O)Nc1cc(Nc2nccc(-c3cn(C4CC4)c4ccccc34)n2)c(OC)cc1N(C)CCN1CCOCC1 [Example 124, N-(5-((4-(1-cyclopropyl-1H-indol-3-yl)pyrimidin-2-yl)amino)-4-methoxy-2-(methyl(2-morpholinoethyl)amino)phenyl)acrylamide] | 190 |  | 4.18 | 45.43 | 30.8 | 
14 | C=CC(=O)Nc1cc(Nc2nccc(-n3nc(C)c4ccc(OC)cc43)n2)c(OC)cc1N(C)CCN1CCCC1 [Example 132, N-(4-methoxy-5-((4-(6-methoxy-3-methyl-1H-indazol-1-yl)pyrimidin-2-yl)amino)-2-(methyl(2-(pyrrolidin-1-yl)ethyl)amino)phenyl)acrylamide] | 12 |  | 1.29 | 9.34 | 10.1 | 
15 | C=CC(=O)Nc1cc(Nc2nccc(-n3ncc4cc(OCC)ccc43)n2)c(OC)cc1N(C)CCN1CCCC1 [Example 133] | 7.49 |  | 0.69 | 10.86 | 6.47 | 
16 | C=CC(=O)Nc1cc(Nc2nccc(-n3cnc4ccc(OC)cc43)n2)c(OC)cc1N(C)CCN1CCCC1 [Example 139, N-(4-methoxy-5-((4-(6-methoxy-1H-benzo[d]imidazol-1-yl)pyrimidin-2-yl)amino)-2-(methyl(2-(pyrrolidin-1-yl)ethyl)amino)phenyl)acrylamide] | 9.16 |  | 1.44 | 6.36 | 6.28 | 
17 | C=CCn1cc(-c2ccnc(Nc3cc(NC(=O)C=C)c(N(C)CCN(C)C)cc3OC)n2)c2ccccc21 [Example 141, N-(5-((4-(1-allyl-1H-indol-3-yl)pyrimidin-2-yl)amino)-2-((2-(dimethylamino)ethyl)(methyl)amino)-4-methoxyphenyl)acrylamide] | 6.62 |  | 0.6 | 11.1 | 7.51 | 
